Data from patent publication US20120052025A1 (Colgate-Palmolive Company, priority 2009, published 2012).
≈ marks a conversion by molar mass, not a printed value.

What was measured:
biofilm = assay: Biofilm disruption assay; assay type: cell-based
Description: The solution of 0.5% AN0128.0.75% SLS. 50% Fluraflo L4370 in water is then tested in a biofilm disruption assay.
A solution of 2% Compound 1 in PEG 300 is diluted 1:1 with 2% SLS in water to produce a solution composed of 1% Compound 1, 1% SLS, 50% PEG 300 in water which is then tested in a biofilm disruption assay.
(§1) The properties of Compound 1 in conjunction with other excipients are further evaluated by diluting a solution of Compound 1 in PEG 300 into other solvents such as propylene glycol and glycerin at varying ratios. A solution containing 1% Compound 1 in 19% PEG 300 and 80% propylene glycol is clear. This solution is then diluted 1:1 with 1% SLS in water to produce a solution composed of 0.5% Compound 1, 0.5% SLS, 9.5% PEG 300 and 40% propylene glycol in water which is then tested in the biofilm disruption assay. The percent reduction achieved versus the negative control is 80%. […] Similar results are achieved with PEG and glycerin.

[1] = Stability of formulations with and without antioxidants; assay type: physicochemical
Description: The stability of three formulations of Compound 1 are compared, the formulations being identical except that one is without any antioxidants, one contains α-tocopherol, and the third contains sodium ascorbylphosphate.

[2] = assay type: physicochemical
Description: Although some borinic esters are effective as antibacterial agents, incorporating borinic esters into oral care compositions presents difficulties, as borinic esters have proven to be unstable when added to aqueous compositions. For example, borinic esters may hydrolyze and decompose, e.g., in oral care compositions. Additionally, borinic esters may be insoluble in aqueous compositions. […] There remains a need to develop compositions and methods to incorporate borinic acid derivatives stably in oral care compositions.
The poor solubility of Compound A presents some formulation challenges. Its solubility in water is less than 100 ppm, and its solubility in flavor oils (often used to solubilize actives) is less than 0.5%. We have discovered that co-polymers of polyethylene glycol and polypropylene glycol are able to solubilize Compound 1. Fluraflo L4370 (BASF) is able to solubilize 1% Compound 1 (% w/w). It is necessary to stir the solution over low heat to fully solubilize the active. The resulting solution is cloudy, reflecting the nature of the Fluraflo L4370 itself. The solution of 1% Compound 1 in Fluraflo L4370 is diluted 1:1 with 1.5% SLS in water to produce a clear solution, composed of 0.5% AN0128, 0.75% SLS, 50% Fluraflo L4370 in water Similar results are achieved using Fluracare L1220.
We further discovered that low molecular weight polyethylene glycol 300 (PEG 300) (Dow Chemical Company) solubilizes 10% Compound 1 (% w/w). It is necessary to stir the solution over low heat to fully solubilize the active. The resulting solution is clear with a slight yellow tint due to the color of Compound 1. […] Therefore, we conclude that solvents containing oligomers and/or polymers of ethylene glycol are capable of solubilizing Compound 1 and are suitable for formulation.
as §1

[3] = Decomposition in buffered vs unbuffered pH 7.2 formulation; assay type: physicochemical; settings: pH 7.2, phosphate buffer, 14 days
Description: Two pH 7.2 formulations of Compound 1 are prepared, one with phosphate buffer, one without, and the decomposition of Compound 1 is measured over 14 days. While measurable decomposition is seen in both formulations, the slope of the rate of decomposition Compound 1 in the buffered formulation is decreased by 3.3 fold compared to that of the unbuffered formulation.

L. casei = assay: Minimum inhibitory concentration; assay type: cell-based; settings: Lacticaseibacillus casei, Gram Positive, ethanol vehicle
Description: (§2) The minimum inhibitory concentration for COMPOUND 1 against common oral bacteria is found to be as follows. Ethanol is used as vehicle.

V. parvula = assay: Minimum inhibitory concentration; assay type: cell-based; settings: Veillonella parvula, Gram Negative, ethanol vehicle
Description: as §2

S. oralis = assay: Minimum inhibitory concentration; assay type: cell-based; settings: Streptococcus oralis, Gram Positive, ethanol vehicle
Description: as §2

S. gordonii = assay: Minimum inhibitory concentration; assay type: cell-based; settings: Streptococcus gordonii, Gram Positive, ethanol vehicle
Description: as §2

S. mutans = assay: Minimum inhibitory concentration; assay type: cell-based; settings: Streptococcus mutans, Gram Positive, ethanol vehicle
Description: as §2

P. gingivalis = assay: Minimum inhibitory concentration; assay type: cell-based; settings: Porphyromonas gingivalis, Gram Negative, ethanol vehicle
Description: as §2

S. sanguinis = assay: Minimum inhibitory concentration; assay type: cell-based; settings: Streptococcus sanguinis, Gram Positive, ethanol vehicle
Description: as §2

A. actinomycetemcomitans = assay: Minimum inhibitory concentration; assay type: cell-based; settings: Aggregatibacter actinomycetemcomitans, Gram Negative, ethanol vehicle
Description: as §2

F. nucleatum = assay: Minimum inhibitory concentration; assay type: cell-based; settings: Fusobacterium nucleatum, Gram Negative, ethanol vehicle
Description: as §2

A. naeslundii = assay: Minimum inhibitory concentration; assay type: cell-based; settings: Actinomyces naeslundii, Gram Positive, ethanol vehicle
Description: as §2

S. sobrinus = assay: Minimum inhibitory concentration; assay type: cell-based; settings: Streptococcus sobrinus, Gram Positive, ethanol vehicle
Description: as §2

P. intermedia = assay: Minimum inhibitory concentration; assay type: cell-based; settings: Prevotella intermedia, Gram Negative, ethanol vehicle
Description: as §2

A. viscosus = assay: Minimum inhibitory concentration; assay type: cell-based; settings: Actinomyces viscosus, Gram Positive, ethanol vehicle
Description: as §2

For `Cc1ccc([B-]2(c3ccc(C)c(Cl)c3)OC(=O)c3ncccc3[OH+]2)cc1Cl` [Compound 1], the “percent reduction versus the negative control” value (biofilm; solution of 0.5% AN0128, 0.75% SLS, 50% Fluraflo L4370 in water) was 65%, the “percent reduction versus the negative control” value (biofilm; solution of 0.5% Compound 1, 0.5% SLS, 9.5% PEG 300 and 40% propylene glycol in water) was 80% and the “percent reduction versus the negative control” value (biofilm; solution of 1% Compound 1, 1% SLS, 50% PEG 300 in water) was 76%. The decomposition in formulation ([1]; formulation containing sodium ascorbylphosphate vs without antioxidants) was “significantly reduced”, the decomposition in formulation ([1]; formulation containing α-tocopherol vs without antioxidants) was “even less” and the “amount of Compound 1 solubilized by Fluraflo L4370” value [2] was 1 % w/w. The “amount of Compound 1 solubilized by PEG 300” value [2] was 10 % w/w, the solubility in oils [2] was “less than 0.5%” and the solubility in water [2] was 100 ppm. The “solubilization by PEG 600” value [2] was “can solubilize”, the appearance of solution ([2]; 1% Compound 1 in 19% PEG 300 and 80% propylene glycol) was “clear” and the “decrease of the slope of the rate of decomposition, buffered vs unbuffered formulation” value [3] was 3.3 fold. The MIC (L. casei) was 2 to 3.9 µg/mL (≈ 5 to 9.75 µM), the MIC (V. parvula) was 7.8 µg/mL (≈ 19.5 µM) and the MIC (S. oralis) was 0.12 to 0.25 µg/mL (≈ 0.3 to 0.625 µM). The MIC (S. gordonii) was 0.12 to 0.25 µg/mL (≈ 0.3 to 0.625 µM), the MIC (S. mutans) was 0.25 to 0.5 µg/mL (≈ 0.625 to 1.25 µM) and the MIC (P. gingivalis) was ≤ 0.12 µg/mL. For the same molecule, the MIC (S. sanguinis) was 0.25 to 0.5 µg/mL (≈ 0.625 to 1.25 µM), the MIC (A. actinomycetemcomitans) was > 15.6 µg/mL and the MIC (F. nucleatum) was 1 to 2 µg/mL (≈ 2.5 to 5 µM). It also gave an MIC (A. naeslundii) of 1 to 2 µg/mL (≈ 2.5 to 5 µM), an MIC (S. sobrinus) of 0.12 to 0.5 µg/mL (≈ 0.3 to 1.25 µM) and an MIC (P. intermedia) of 3.9 to 7.8 µg/mL (≈ 9.75 to 19.5 µM). It also gave an MIC (A. viscosus) of 1 µg/mL (≈ 2.5 µM).
